Data set [1] deals with Beta-1 adrenergic receptor (Homo sapiens, UniProt P08588). Description: DRUGMATRIX: Adrenergic beta1 radioligand binding (ligand: [125I] Cyanopindolol). Format: cell membranes, CHO-K1, Membrane. Conditions: cho-k1; Not Active = under 50% inhibition at 10 µM.
A short description of data set [2]: DRUGMATRIX: Tumor Necrosis Factor (TNF), Non-Selective radioligand binding (ligand: [125I] TNF-alpha). As to conditions: u-937; Not Active = under 50% inhibition at 10 µM. It is filed as cell membranes, Membrane.
In data set [3] the target is T1, 3-hydroxy-3-methylglutaryl-coenzyme A reductase (Homo sapiens, UniProt P04035).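 Note: enzyme inhibition assay of HMG-CoA reductase using radiolabeled [14C]HMG-CoA as substrate; in other assays of this panel Not Active means under 50% inhibition at 10 µM.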
T1 sequence (P04035 whole entry): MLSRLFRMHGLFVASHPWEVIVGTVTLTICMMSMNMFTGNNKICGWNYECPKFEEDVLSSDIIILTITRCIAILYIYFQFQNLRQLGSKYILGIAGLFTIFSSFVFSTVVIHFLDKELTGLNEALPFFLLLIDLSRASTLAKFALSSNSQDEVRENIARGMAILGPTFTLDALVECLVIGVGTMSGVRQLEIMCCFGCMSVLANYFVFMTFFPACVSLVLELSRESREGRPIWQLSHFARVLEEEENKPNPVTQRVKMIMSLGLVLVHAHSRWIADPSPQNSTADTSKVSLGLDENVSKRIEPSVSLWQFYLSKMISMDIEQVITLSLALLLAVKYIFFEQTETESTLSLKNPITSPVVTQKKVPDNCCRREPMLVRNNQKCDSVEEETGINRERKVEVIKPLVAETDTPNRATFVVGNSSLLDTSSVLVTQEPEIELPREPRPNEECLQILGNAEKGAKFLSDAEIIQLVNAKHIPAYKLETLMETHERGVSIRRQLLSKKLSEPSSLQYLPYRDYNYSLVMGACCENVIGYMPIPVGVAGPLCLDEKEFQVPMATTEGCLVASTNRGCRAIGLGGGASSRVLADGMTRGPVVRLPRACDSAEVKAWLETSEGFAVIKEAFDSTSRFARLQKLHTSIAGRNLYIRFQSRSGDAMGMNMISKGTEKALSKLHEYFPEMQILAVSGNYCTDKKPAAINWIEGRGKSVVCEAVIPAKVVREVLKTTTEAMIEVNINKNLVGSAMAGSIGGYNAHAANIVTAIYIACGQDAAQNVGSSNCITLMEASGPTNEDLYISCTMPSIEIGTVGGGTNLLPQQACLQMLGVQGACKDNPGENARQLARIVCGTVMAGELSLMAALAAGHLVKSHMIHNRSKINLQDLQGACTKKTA
Also noted: species or system Escherichia coli.

A short description of data set [4]: DRUGMATRIX: Phosphodiesterase PDE4 enzyme inhibition (substrate: [3H]cAMP + cAMP). Conditions: u-937; Not Active = under 50% inhibition at 10 µM.
Data set [5] has as its target Matrix metalloproteinase-9 (Homo sapiens, UniProt P14780). Format: cell-based.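 Note: inhibition of isolated MMP-9 enzyme activity toward a synthetic peptide substrate, from the DrugMatrix protease screening panel; in other assays of this panel Not Active means under 50% inhibition at 10 µM.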
Data set [6] addresses 5-hydroxytryptamine receptor 1B (Rattus norvegicus, UniProt P28564). Format: cell membranes, Wistar, Cerebral cortex, Membrane.
The target of data set [7] is Cytochrome P450 2C9 (Homo sapiens, UniProt P11712). Conditions: bti-tn-5b1-4. Note: in other assays of this panel Not Active means under 50% inhibition at 10 µM.
Cytochrome P450 2C9, sequence (P11712 whole entry): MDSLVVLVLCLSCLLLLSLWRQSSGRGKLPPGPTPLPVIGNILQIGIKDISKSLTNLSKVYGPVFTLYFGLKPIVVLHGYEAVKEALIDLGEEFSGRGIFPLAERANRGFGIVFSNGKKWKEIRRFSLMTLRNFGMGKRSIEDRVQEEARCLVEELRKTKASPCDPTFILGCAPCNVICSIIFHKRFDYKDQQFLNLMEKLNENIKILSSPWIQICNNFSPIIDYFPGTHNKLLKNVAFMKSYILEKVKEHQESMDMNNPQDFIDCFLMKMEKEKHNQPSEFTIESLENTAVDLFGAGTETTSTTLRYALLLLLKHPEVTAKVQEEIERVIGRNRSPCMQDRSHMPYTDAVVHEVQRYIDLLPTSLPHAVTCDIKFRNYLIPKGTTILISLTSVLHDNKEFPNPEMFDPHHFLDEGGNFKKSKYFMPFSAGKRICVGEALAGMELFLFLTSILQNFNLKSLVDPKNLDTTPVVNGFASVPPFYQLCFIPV
In data set [8] the target is Cytochrome P450 3A4 (Homo sapiens, UniProt P08684). As to conditions: bti-tn-5b1-4. Note: in other assays of this panel Not Active means under 50% inhibition at 10 µM.
Cytochrome P450 3A4, sequence (P08684 whole entry): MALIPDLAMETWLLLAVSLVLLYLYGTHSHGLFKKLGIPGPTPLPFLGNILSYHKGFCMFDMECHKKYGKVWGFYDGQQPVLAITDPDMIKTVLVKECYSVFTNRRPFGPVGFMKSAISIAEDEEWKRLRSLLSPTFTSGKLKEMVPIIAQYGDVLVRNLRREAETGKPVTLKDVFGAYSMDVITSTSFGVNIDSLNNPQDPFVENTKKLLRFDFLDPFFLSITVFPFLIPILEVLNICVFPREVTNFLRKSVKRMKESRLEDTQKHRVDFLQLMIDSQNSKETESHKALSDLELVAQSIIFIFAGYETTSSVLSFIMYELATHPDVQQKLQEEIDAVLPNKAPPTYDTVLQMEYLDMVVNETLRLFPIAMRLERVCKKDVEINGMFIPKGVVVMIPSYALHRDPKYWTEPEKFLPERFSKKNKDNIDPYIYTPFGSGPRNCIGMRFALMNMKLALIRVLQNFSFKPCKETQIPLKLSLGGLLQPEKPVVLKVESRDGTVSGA

5-hydroxytryptamine receptor 1B, sequence (P28564 whole entry): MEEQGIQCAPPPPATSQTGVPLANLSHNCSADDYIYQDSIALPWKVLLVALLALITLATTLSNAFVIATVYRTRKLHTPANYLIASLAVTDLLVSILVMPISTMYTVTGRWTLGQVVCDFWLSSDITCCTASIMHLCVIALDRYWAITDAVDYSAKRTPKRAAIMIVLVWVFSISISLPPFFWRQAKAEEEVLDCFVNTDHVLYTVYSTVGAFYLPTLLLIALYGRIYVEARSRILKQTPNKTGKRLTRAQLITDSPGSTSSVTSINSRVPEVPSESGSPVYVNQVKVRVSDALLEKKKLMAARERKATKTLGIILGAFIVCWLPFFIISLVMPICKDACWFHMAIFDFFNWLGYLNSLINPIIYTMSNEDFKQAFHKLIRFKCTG
Matrix metalloproteinase-9, sequence (P14780 whole entry): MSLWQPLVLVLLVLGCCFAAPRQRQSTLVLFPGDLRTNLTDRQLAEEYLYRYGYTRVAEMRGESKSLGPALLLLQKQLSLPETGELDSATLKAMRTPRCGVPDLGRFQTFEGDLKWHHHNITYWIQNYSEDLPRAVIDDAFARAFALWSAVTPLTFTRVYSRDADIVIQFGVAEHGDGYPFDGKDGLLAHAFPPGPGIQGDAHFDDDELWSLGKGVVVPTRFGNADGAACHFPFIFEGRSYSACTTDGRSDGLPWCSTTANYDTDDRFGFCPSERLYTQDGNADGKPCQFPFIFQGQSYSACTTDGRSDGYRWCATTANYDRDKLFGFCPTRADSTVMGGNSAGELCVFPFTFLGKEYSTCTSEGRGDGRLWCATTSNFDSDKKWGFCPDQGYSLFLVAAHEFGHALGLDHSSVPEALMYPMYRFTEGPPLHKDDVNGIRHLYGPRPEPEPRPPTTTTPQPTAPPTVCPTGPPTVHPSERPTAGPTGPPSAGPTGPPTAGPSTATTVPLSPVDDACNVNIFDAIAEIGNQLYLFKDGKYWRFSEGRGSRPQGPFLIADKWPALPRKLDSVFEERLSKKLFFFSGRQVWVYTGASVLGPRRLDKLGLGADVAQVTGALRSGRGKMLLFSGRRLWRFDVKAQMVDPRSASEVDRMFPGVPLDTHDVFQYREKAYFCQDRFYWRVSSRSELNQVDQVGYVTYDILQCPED
Beta-1 adrenergic receptor, sequence (P08588 whole entry): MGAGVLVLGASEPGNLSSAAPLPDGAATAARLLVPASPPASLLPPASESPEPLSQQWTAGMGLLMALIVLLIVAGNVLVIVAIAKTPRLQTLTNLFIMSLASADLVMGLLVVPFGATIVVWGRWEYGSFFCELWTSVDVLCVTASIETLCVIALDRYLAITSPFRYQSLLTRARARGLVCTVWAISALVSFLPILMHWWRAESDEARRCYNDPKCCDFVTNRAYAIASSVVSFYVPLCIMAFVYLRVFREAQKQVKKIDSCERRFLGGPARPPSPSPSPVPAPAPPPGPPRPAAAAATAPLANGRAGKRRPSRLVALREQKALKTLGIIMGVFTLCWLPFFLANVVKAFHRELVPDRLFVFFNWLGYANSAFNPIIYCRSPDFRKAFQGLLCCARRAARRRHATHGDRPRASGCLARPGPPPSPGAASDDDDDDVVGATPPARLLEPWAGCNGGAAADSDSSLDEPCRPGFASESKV

`C[C@H](C(=O)O)c1ccc2oc(-c3ccc(F)cc3)nc2c1` [FLUNOXAPROFEN]: the IC50 result in data set [1], in data set [2], in data set [3], in data set [4], in data set [5] and in data set [6] was “Not Active” throughout. Further, the IC50 entry in data set [7] and in data set [8] was “Not Active” in each case. The Ki entry in data set [2], in data set [4], in data set [7] and in data set [8] was “Not Active” in each case.

COPPER(II) OXIDE: the IC50 result in data set [1], in data set [2], in data set [3], in data set [4], in data set [5] and in data set [6] was “Not Active” each time. Further, the IC50 entry in data set [7] and in data set [8] was “Not Active” throughout. Further, the Ki result in data set [1], in data set [2], in data set [3], in data set [4], in data set [5] and in data set [6] was “Not Active” in each case. The Ki result in data set [7] and in data set [8] was “Not Active” in each case.

With `NC(=O)CN1CCCC1=O`, the IC50 result in data set [1], in data set [2], in data set [3], in data set [4], in data set [5] and in data set [6] was “Not Active” in each case. Further, the IC50 entry in data set [7] and in data set [8] was “Not Active” throughout. Moreover, the Ki entry in data set [2], in data set [4], in data set [7] and in data set [8] was “Not Active” throughout.

Regarding `O=C1c2ccccc2C(=O)C1c1ccccc1` [PHENINDIONE], the IC50 result in data set [1], in data set [2], in data set [3], in data set [4], in data set [5] and in data set [6] was “Not Active” throughout. Further, the IC50 result in data set [7] and in data set [8] was “Not Active” in each case. Further, the Ki entry in data set [2], in data set [4], in data set [7] and in data set [8] was “Not Active” each time.

Take `CCN1C[C@]2(COC)[C@H](O)C[C@H](OC)[C@@]34[C@@H]5C[C@@]6(O)[C@H](OC(=O)c7ccccc7)[C@@H]5[C@@](OC(C)=O)([C@@H]([C@H](OC)[C@H]23)[C@@H]14)[C@@H](O)[C@@H]6OC` [ACONITINE]: the IC50 entry in data set [1], in data set [2], in data set [3], in data set [4], in data set [5] and in data set [6] was “Not Active” each time. Moreover, the IC50 result in data set [7] and in data set [8] was “Not Active” throughout. Further, the Ki entry in data set [2], in data set [4], in data set [7] and in data set [8] was “Not Active” throughout.

As to `O=C(NCCN1CCOCC1)c1ccc(Cl)cc1` [MOCLOBEMIDE], the IC50 entry in data set [1], in data set [2], in data set [3], in data set [4], in data set [5] and in data set [6] was “Not Active” each time. Further, the IC50 entry in data set [7] and in data set [8] was “Not Active” in each case. Further, the Ki result in data set [2], in data set [4], in data set [7] and in data set [8] was “Not Active” throughout.

As for `O=C(O)COC(=O)Cc1ccccc1Nc1c(Cl)cccc1Cl` [ACECLOFENAC], the IC50 entry in data set [1], in data set [2], in data set [3], in data set [4], in data set [5] and in data set [6] was “Not Active” in each case. Moreover, the IC50 entry in data set [7] and in data set [8] was “Not Active” each time. The Ki entry in data set [2], in data set [4], in data set [7] and in data set [8] was “Not Active” in each case.

Regarding `COc1cc(/C=C/C(=O)O)ccc1O` [FERULATE], the IC50 result in data set [1], in data set [2], in data set [3], in data set [4], in data set [5] and in data set [6] was “Not Active” throughout. Moreover, the concentration for half-maximal inhibition (IC50) entry in data set [7] and in data set [8] was “Not Active” in each case. The Ki entry in data set [2], in data set [4], in data set [7] and in data set [8] was “Not Active” in each case.

On to `O=c1[nH]c2ccccc2c2ccccc12`, for which the IC50 result in data set [1], in data set [2], in data set [3], in data set [4], in data set [5] and in data set [6] was “Not Active” throughout. Besides, the IC50 result in data set [7] and in data set [8] was “Not Active” each time. The Ki entry in data set [2], in data set [4], in data set [7] and in data set [8] was “Not Active” throughout.

On to `COc1ccc(C[C@H](N)C(=O)N[C@H]2[C@@H](O)[C@H](n3cnc4c(N(C)C)ncnc43)O[C@@H]2CO)cc1` [PUROMYCIN], for which the IC50 entry in data set [1], in data set [2], in data set [3], in data set [4], in data set [5] and in data set [6] was “Not Active” in each case. The IC50 entry in data set [7] and in data set [8] was “Not Active” in each case. Also, the Ki entry in data set [2], in data set [4], in data set [7] and in data set [8] was “Not Active” each time.

As for `NC(=O)NC(=O)Cc1ccccc1` [PHENACEMIDE], the IC50 entry in data set [1], in data set [2], in data set [3], in data set [4], in data set [5] and in data set [6] was “Not Active” throughout. Moreover, the half-inhibitory concentration (IC50) entry in data set [7] and in data set [8] was “Not Active” each time. Besides, the Ki entry in data set [2], in data set [4], in data set [7] and in data set [8] was “Not Active” in each case.

As for `CC(N)Cc1c[nH]c2ccc(OCc3cccs3)cc12` (centres undefined) [BW-723C86], the IC50 (commonly the point on the concentration scale where inhibition reaches its midpoint) in data set [1] is “Not Active”; in data set [2], “Not Active”; in data set [3], “Not Active”; in data set [4] it was “Not Active”; in data set [5], “Not Active”; in data set [6] (read-out: IC50), 0.421 µM. The IC50 entry in data set [7] and in data set [8] was “Not Active” in each case. Besides, the Ki (as a rule, the dissociation constant of the complex between target and ligand, obtained from inhibition or displacement) in data set [2] was “Not Active”; in data set [4], “Not Active”; in data set [6] (read-out: Ki) it was 0.4 µM; in data set [7] it was “Not Active”; in data set [8], “Not Active”.

For `c1ccc2c(c1)Nc1ccccc1S2` [PHENOTHIAZINE], the IC50 entry in data set [1], in data set [2], in data set [3], in data set [4], in data set [5] and in data set [6] was “Not Active” each time. In addition, the IC50 entry in data set [7] and in data set [8] was “Not Active” in each case. Also, the Ki entry in data set [2], in data set [4], in data set [7] and in data set [8] was “Not Active” in each case.

Consider POVIDONE, for which the IC50 entry in data set [1], in data set [2], in data set [3], in data set [4], in data set [5] and in data set [6] was “Not Active” each time. Further, the IC50 entry in data set [7] and in data set [8] was “Not Active” each time. For the same compound, the Ki result in data set [1], in data set [2], in data set [3], in data set [4], in data set [5] and in data set [6] was “Not Active” each time. The Ki result in data set [7] and in data set [8] was “Not Active” in each case.

Regarding `CCO` [ALCOHOL], the IC50 entry in data set [1], in data set [2], in data set [3], in data set [4], in data set [5] and in data set [6] was “Not Active” throughout. In addition, the IC50 result in data set [7] and in data set [8] was “Not Active” each time. Moreover, the Ki result in data set [2], in data set [4], in data set [7] and in data set [8] was “Not Active” each time.

The values above are taken from ChEMBL document CHEMBL1909046, “DrugMatrix in vitro pharmacology data”.
